Like-named read-outs stand apart in the source and are kept apart here.
Biological target: T1, OGT (O-GlcNAc transferase) (Homo sapiens, UniProt O15294)
T1 construct: full-length OGT, recombinant, purified; plasmid gift of D. J. Vocadlo
T1 sequence (O15294 2-1036 isoform O15294-3): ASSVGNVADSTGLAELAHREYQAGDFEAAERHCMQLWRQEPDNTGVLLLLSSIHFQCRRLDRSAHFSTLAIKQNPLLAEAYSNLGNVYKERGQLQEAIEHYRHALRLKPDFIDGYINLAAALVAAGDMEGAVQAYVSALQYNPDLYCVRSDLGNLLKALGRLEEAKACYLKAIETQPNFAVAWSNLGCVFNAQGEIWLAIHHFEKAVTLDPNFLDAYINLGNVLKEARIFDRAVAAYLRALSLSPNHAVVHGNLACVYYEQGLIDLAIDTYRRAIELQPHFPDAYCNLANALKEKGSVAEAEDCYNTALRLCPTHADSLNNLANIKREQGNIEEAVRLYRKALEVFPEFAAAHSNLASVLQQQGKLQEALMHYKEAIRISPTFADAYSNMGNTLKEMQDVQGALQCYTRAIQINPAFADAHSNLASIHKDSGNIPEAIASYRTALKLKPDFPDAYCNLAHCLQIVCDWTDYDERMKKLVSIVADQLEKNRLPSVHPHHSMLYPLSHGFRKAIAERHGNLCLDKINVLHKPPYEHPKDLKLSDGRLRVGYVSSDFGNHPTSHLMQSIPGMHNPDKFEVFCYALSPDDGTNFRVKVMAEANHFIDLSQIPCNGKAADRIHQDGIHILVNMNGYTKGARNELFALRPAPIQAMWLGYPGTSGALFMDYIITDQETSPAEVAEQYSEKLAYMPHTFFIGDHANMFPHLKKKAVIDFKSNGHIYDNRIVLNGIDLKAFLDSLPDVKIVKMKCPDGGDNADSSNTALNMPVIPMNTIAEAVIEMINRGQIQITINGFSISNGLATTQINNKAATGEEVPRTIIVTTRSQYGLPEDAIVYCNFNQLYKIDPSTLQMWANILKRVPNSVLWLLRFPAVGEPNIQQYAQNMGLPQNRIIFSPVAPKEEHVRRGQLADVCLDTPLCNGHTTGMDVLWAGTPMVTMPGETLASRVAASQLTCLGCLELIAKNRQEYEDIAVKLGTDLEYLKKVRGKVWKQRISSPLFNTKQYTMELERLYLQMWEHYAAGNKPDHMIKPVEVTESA
Assay: UDP-Glo glycosyltransferase assay, luminescence
Assay type: biochemical

| IC50 (250 nM OGT, 125 μM CKII peptide, 40 μM UDP-GlcNAc, pH 7.4, time-dependent, not fully UDP-GlcNAc competitive) [µM] | IC50 [µM] | SMILES |
| --- | --- | --- |
| 21.8 | – | O=C1C[C@@H](c2ccc(O)c(-c3c(O)cc(O)c4c3O[C@H](c3ccc(O)cc3)CC4=O)c2)Oc2cc(O)cc(O)c21 [L01] |
| – | 3.5 | COc1ccccc1[C@@H](NS(=O)(=O)c1ccc2[nH]c(=O)ccc2c1)C(=O)N(Cc1ccco1)Cc1cccs1 [OSMI-1] |

From publication PMC5615061, “Discovery of a Low Toxicity O-GlcNAc Transferase (OGT) Inhibitor by Structure-based Virtual Screening of Natural Products” (Scientific Reports, 2017)
